These results are taken from patent US20250154138A1, “Small Molecule IL-17A Modulators” (BeiGene, Ltd., priority 2022, published 2025).

This assay addresses human IL-17A / human IL-17RA (Homo sapiens (Human), UniProt Q16552). Put plainly: Human IL-17A biochemical assay (HTRF, blocking of IL-17A binding to IL-17RA). As to conditions: 0.4 nM IL-17A, 0.3 nM IL-17RA, max compound concentration 10 uM. The protocol: Compounds disclosed herein were tested for blocking of human IL-17A (Cat: C774, novoprotein) protein with its receptor human IL-17RA (Cat: C153, novoprotein) in an assay based on Homogeneous Time Resolved Fluorescence. 0.4 nM recombinant human IL-17A protein was pre-incubated with a serial dilution of compounds disclosed herein (maximum concentration is 10 uM, 2.7-fold serially diluted, 10 points) at room temperature for 3 hours in an assay buffer containing 20 mM HEPES, pH 7.5, 50 mM NaCl, 0.1% BSA, 0.2 mM DTT, 0.005% Tween 20. Then 0.3 nM recombinant human IL-17RA was added to plate and further incubated at room temperature for 1 hour. After that Mab Anti-6His Tb cryptate Gold (Cat: 61HI2TLB, Cisbio Bioassays) and MAb Anti Human IgG-XL665 (Cat: 61HFCXLB, Cisbio Bioassays) were added to plate and further incubated at room temperature for 1 hour. The HTRF signals (ex337 nm, em620 nm/665 nm) were read on BMG PHERAstar FSX instrument. The inhibition percentage of human IL-17A interaction with its receptor human IL-17RA in presence of increasing concentrations of compounds was calculated based on the ratio of […]. The IC50 for each compound was derived from fitting the data to the four-parameter logistic equation by Dotmatics.

human IL-17A / human IL-17RA, sequence (Q16552 24-155): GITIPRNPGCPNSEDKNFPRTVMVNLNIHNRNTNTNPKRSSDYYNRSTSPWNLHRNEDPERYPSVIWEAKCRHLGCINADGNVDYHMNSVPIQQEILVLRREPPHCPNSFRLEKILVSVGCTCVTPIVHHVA

Regarding `CNC(=O)C1Cc2ccc(NC(=O)[C@@H](NC(=O)c3ccnn3C)C3CCCCC3)cc2C1` (stereo partly drawn) [Example 4, N-((1S)-1-cyclohexyl-2-((2-(methylcarbamoyl)-2,3-dihydro-1H-inden-5-yl)amino)-2-oxoethyl)-1-methyl-1H-pyrazole-5-carboxamide], the 50% inhibitory concentration (IC50) (in general, the concentration needed to halve the response being measured) was more than 10000 nM.
`CNC(=O)C1(N2CC(C)NC2=O)COc2ccc(NC(=O)[C@@H](NC(=O)c3ccnn3C)C3CCCCC3)cc2OC1` (stereo partly drawn) [Example 6, N-((1S)-1-cyclohexyl-2-((3-(4-methyl-2-oxoimidazolidin-1-yl)-3-(methylcarbamoyl)-3,4-dihydro-2H-benzo[b][1,4]dioxepin-7-yl)amino)-2-oxoethyl)-1-methyl-1H-pyrazole-5-carboxamide]: the IC50 stood at 17000 nM.
The compound `CNC(=O)C1(N2CC(C)NC2=O)CCc2ccc(NC(=O)[C@@H](NC(=O)c3ccnn3C)C3CCCCC3)cc2CC1` (stereo partly drawn) [Example 7, N-((1S)-1-cyclohexyl-2-((7-(4-methyl-2-oxoimidazolidin-1-yl)-7-(methylcarbamoyl)-6,7,8,9-tetrahydro-5H-benzo[7]annulen-2-yl)amino)-2-oxoethyl)-1-methyl-1H-pyrazole-5-carboxamide] registered a half-maximal inhibitory concentration (IC50) of 51000 nM. Compared with the last compound, the IC50 is about 3-fold higher.
The same measure for `CNC(=O)C1(N2CC(C)NC2=O)CCc2cc(NC(=O)[C@@H](NC(=O)c3ccnn3C)C3CCCCC3)ccc21` (stereo partly drawn) [Example 8, N-((1S)-1-cyclohexyl-2-((1-(4-methyl-2-oxoimidazolidin-1-yl)-1-(methylcarbamoyl)-2,3-dihydro-1H-inden-5-yl)amino)-2-oxoethyl)-1-methyl-1H-pyrazole-5-carboxamide]: more than 10000 nM.
With `CNC(=O)C1(N2CC(C)NC2=O)CCc2ccc(NC(=O)[C@@H](NC(=O)c3ccnn3C)C3CCCCC3)cc2C1` (stereo partly drawn) [Example 10, N-((1S)-1-cyclohexyl-2-((7-(4-methyl-2-oxoimidazolidin-1-yl)-7-(methylcarbamoyl)-5,6,7,8-tetrahydronaphthalen-2-yl)amino)-2-oxoethyl)-1-methyl-1H-pyrazole-5-carboxamide], the concentration for half-maximal inhibition (IC50) turned out to be 19000 nM.
The figure for `CNC(=O)C1(N2CC(C)NC2=O)Cc2ccc(NC(=O)[C@H](CC3CCCCC3)NC(=O)c3ccnn3C)cc2C1` (stereo partly drawn) [Example 16, N-((2S)-3-cyclohexyl-1-((2-(4-methyl-2-oxoimidazolidin-1-yl)-2-(methylcarbamoyl)-2,3-dihydro-1H-inden-5-yl)amino)-1-oxopropan-2-yl)-1-methyl-1H-pyrazole-5-carboxamide] is 5000 nM.
In the case of `CC1CN(CC2Cc3ccc(NC(=O)[C@@H](NC(=O)c4ccnn4C)C4CCCCC4)cc3O2)C(=O)N1` (stereo partly drawn) [Example 21, N-((1S)-1-cyclohexyl-2-((2-((4-methyl-2-oxoimidazolidin-1-yl)methyl)-2,3-dihydrobenzofuran-6-yl)amino)-2-oxoethyl)-1-methyl-1H-pyrazole-5-carboxamide], the IC50 was 2400 nM.
In turn, `CNC(=O)C1(N2CC(CC(C)C)NC2=O)Cc2ccc(NC(=O)[C@@H](NC(=O)c3ccnn3C)C3CCCCC3)cc2C1` (stereo partly drawn) [Example 24, N-((1S)-1-cyclohexyl-2-((2-(4-isobutyl-2-oxoimidazolidin-1-yl)-2-(methylcarbamoyl)-2,3-dihydro-1H-inden-5-yl)amino)-2-oxoethyl)-1-methyl-1H-pyrazole-5-carboxamide] had an IC50 of 2340 nM.
In turn, `CNC(=O)C1(N2C[C@@H](C3CCCCC3)NC2=O)Cc2ccc(NC(=O)[C@@H](NC(=O)c3ccnn3C)C3CCCCC3)cc2C1` (stereo partly drawn) [Example 25, N-((1S)-1-cyclohexyl-2-((2-((R)-4-cyclohexyl-2-oxoimidazolidin-1-yl)-2-(methylcarbamoyl)-2,3-dihydro-1H-inden-5-yl)amino)-2-oxoethyl)-1-methyl-1H-pyrazole-5-carboxamide] came in with an IC50 of 6300 nM. Compared with the last compound, the IC50 is about 2.7-fold higher.
The same measure for `CC[C@H]1CN(C2(C(=O)NC)Cc3cc4nc([C@@H](NC(=O)c5nonc5C)C5CCCCC5)[nH]c4cc3C2)C(=O)N1` [Example 33, N-((1S)-cyclohexyl(6-((S)-4-ethyl-2-oxoimidazolidin-1-yl)-6-(methylcarbamoyl)-1,5,6,7-tetrahydroindeno[5,6-d]imidazol-2-yl)methyl)-4-methyl-1,2,5-oxadiazole-3-carboxamide]: 2040 nM.
The figure for `CNC(=O)C1(N2CC(C3CCOC3)NC2=O)Cc2ccc(NC(=O)[C@@H](NC(=O)c3ccnn3C)C3CCCCC3)cc2C1` (stereo partly drawn) [Example 34, N-((1S)-1-cyclohexyl-2-((2-(methylcarbamoyl)-2-(2-oxo-4-(tetrahydrofuran-3-yl)imidazolidin-1-yl)-2,3-dihydro-1H-inden-5-yl)amino)-2-oxoethyl)-1-methyl-1H-pyrazole-5-carboxamide] is 8400 nM; for `CNC(=O)C1(N2CC(c3ccccc3)NC2=O)Cc2ccc(NC(=O)[C@@H](NC(=O)c3ccnn3C)C3CCCCC3)cc2C1` (stereo partly drawn) [Example 36, N-((1S)-1-cyclohexyl-2-((2-(methylcarbamoyl)-2-(2-oxo-4-phenylimidazolidin-1-yl)-2,3-dihydro-1H-inden-5-yl)amino)-2-oxoethyl)-1-methyl-1H-pyrazole-5-carboxamide] it is 2430 nM; for `CNC(=O)C1(N2CC(C(C)(C)O)NC2=O)Cc2ccc(NC(=O)[C@@H](NC(=O)c3ccnn3C)C3CCCCC3)cc2C1` (stereo partly drawn) [Example 42, N-((1S)-1-cyclohexyl-2-((2-(4-(2-hydroxypropan-2-yl)-2-oxoimidazolidin-1-yl)-2-(methylcarbamoyl)-2,3-dihydro-1H-inden-5-yl)amino)-2-oxoethyl)-1-methyl-1H-pyrazole-5-carboxamide] it is 3170 nM.
`CNC(=O)C1(N2C[C@@H](C(C)C)NC2=O)Cc2ccc(NC(=O)[C@@H](NC(=O)c3ccnn3C)C3CCC3)cc2C1` (stereo partly drawn) [Example 45, N-((1S)-1-cyclobutyl-2-((2-((R)-4-isopropyl-2-oxoimidazolidin-1-yl)-2-(methylcarbamoyl)-2,3-dihydro-1H-inden-5-yl)amino)-2-oxoethyl)-1-methyl-1H-pyrazole-5-carboxamide]: the concentration for half-maximal inhibition (IC50) was determined as 5130 nM. Against the preceding compound, the IC50 is about 1.6-fold higher.
For the compound `CNC(=O)C1(N2C[C@@H](C(C)C)NC2=O)Cc2ccc(NC(=O)[C@@H](NC(=O)C3CC3)C3CCCCC3)cc2C1` (stereo partly drawn) [Example 49, 5-((S)-2-cyclohexyl-2-(cyclopropanecarboxamido)acetamido)-2-((R)-4-isopropyl-2-oxoimidazolidin-1-yl)-N-methyl-2,3-dihydro-1H-indene-2-carboxamide], the IC50 worked out at 1810 nM.
The same measure for `CCOC(=O)N[C@H](C(=O)Nc1ccc2c(c1)CC(C(=O)NC)(N1C[C@@H](C(C)C)NC1=O)C2)C1CCCCC1` (stereo partly drawn) [Example 50, ethyl ((1S)-1-cyclohexyl-2-((2-((R)-4-isopropyl-2-oxoimidazolidin-1-yl)-2-(methylcarbamoyl)-2,3-dihydro-1H-inden-5-yl)amino)-2-oxoethyl)carbamate]: 1580 nM; for `CNC(=O)C1(N2C[C@@H](C(C)C)NC2=O)Cc2ccc(NC(=O)[C@@H](NC(=O)CCc3ccccc3)C3CCCCC3)cc2C1` (stereo partly drawn) [Example 52, 5-((S)-2-cyclohexyl-2-(3-phenylpropanamido)acetamido)-2-((R)-4-isopropyl-2-oxoimidazolidin-1-yl)-N-methyl-2,3-dihydro-1H-indene-2-carboxamide]: 1310 nM; for `CNC(=O)C1(N2C[C@@H](C(C)C)NC2=O)Cc2ccc(NC(=O)[C@@H](NC(=O)c3ccnn3C)c3ccccc3)cc2C1` (stereo partly drawn) [Example 60, N-((1S)-2-((2-((R)-4-isopropyl-2-oxoimidazolidin-1-yl)-2-(methylcarbamoyl)-2,3-dihydro-1H-inden-5-yl)amino)-2-oxo-1-phenylethyl)-1-methyl-1H-pyrazole-5-carboxamide]: 2010 nM.
`CNC(=O)C1(N2C[C@@H](C(C)C)NC2=O)Cc2ccc(NC(=O)[C@@H](NC(=O)c3ncnn3C)C3CCCCC3)cc2C1` (stereo partly drawn) [Example 64, N-((1S)-1-cyclohexyl-2-((2-((R)-4-isopropyl-2-oxoimidazolidin-1-yl)-2-(methylcarbamoyl)-2,3-dihydro-1H-inden-5-yl)amino)-2-oxoethyl)-1-methyl-1H-1,2,4-triazole-5-carboxamide] returned an IC50 of 1820 nM. This IC50 and that of the compound before are within 1.5-fold of each other.
On to `CNC(=O)C1(N2C[C@@H](C(C)C)NC2=O)Cc2ccc(NC(=O)C(NC(=O)c3ccnn3C)C3CCC(OC)CC3)cc2C1` (stereo partly drawn) [Example 72, N-(2-((2-((R)-4-isopropyl-2-oxoimidazolidin-1-yl)-2-(methylcarbamoyl)-2,3-dihydro-1H-inden-5-yl)amino)-1-(4-methoxycyclohexyl)-2-oxoethyl)-1-methyl-1H-pyrazole-5-carboxamide], for which the IC50 is 3630 nM.
As for `CNC(=O)C1(N2CC(CC(F)(F)F)NC2=O)Cc2ccc(NC(=O)[C@@H](NC(=O)c3ccnn3C)C3CCCCC3)cc2C1` (stereo partly drawn) [Example 73, N-((1S)-1-cyclohexyl-2-((2-(methylcarbamoyl)-2-(2-oxo-4-(2,2,2-trifluoroethyl)imidazolidin-1-yl)-2,3-dihydro-1H-inden-5-yl)amino)-2-oxoethyl)-1-methyl-1H-pyrazole-5-carboxamide], the IC50 is 391 nM.
In turn, `CNC(=O)C1(N2C[C@@H](C(C)C)NC2=O)Cc2ccc(NC(=O)[C@@H](Nc3nc4ccccc4o3)C3CCCCC3)cc2C1` (stereo partly drawn) [Example 77, 5-((S)-2-(benzo[d]oxazol-2-ylamino)-2-cyclohexylacetamido)-2-((R)-4-isopropyl-2-oxoimidazolidin-1-yl)-N-methyl-2,3-dihydro-1H-indene-2-carboxamide] returned an IC50 of 490 nM.
